25 compounds from ChEMBL document CHEMBL4334553, “Discovery of Hydroxyamidine Based Inhibitors of IDO1 for Cancer Immunotherapy with Reduced Potential for Glucuronidation” (ACS Med Chem Lett, 2020) can be followed below.

Data set [1] addresses T1, Indoleamine 2,3-dioxygenase 1 (Homo sapiens, UniProt P14902). Nature of the data set: Inhibition of human N-terminal GST-tagged IDO1 expressed in Escherichia coli Rosetta(DE3) pLysS using L-tryptophan as substrate measured after 1 hr by fluorescence assay.
The target of data set [2] is T1, Indoleamine 2,3-dioxygenase 1. The data set can be described thus: Inhibition of IDO1 in interferon-gamma-induced human SKOV3 cells assessed as N-formylkynurenine formation using L-tryptophan as substrate measured after 24 hrs by fluorescence assay.
A short description of data set [3]: Half life in human liver microsomes. It counts as ADME, Microsome.
Data set [4] can be described thus: Half life in mouse liver microsomes. It counts as ADME, Microsome. A general note: Microsomes from liver hold many membrane-bound enzymes, among them those of drug oxidation.
The next data set has as its target T2, UGT1A9 (Homo sapiens, UniProt O60656).
T2 sequence (O60656 whole entry): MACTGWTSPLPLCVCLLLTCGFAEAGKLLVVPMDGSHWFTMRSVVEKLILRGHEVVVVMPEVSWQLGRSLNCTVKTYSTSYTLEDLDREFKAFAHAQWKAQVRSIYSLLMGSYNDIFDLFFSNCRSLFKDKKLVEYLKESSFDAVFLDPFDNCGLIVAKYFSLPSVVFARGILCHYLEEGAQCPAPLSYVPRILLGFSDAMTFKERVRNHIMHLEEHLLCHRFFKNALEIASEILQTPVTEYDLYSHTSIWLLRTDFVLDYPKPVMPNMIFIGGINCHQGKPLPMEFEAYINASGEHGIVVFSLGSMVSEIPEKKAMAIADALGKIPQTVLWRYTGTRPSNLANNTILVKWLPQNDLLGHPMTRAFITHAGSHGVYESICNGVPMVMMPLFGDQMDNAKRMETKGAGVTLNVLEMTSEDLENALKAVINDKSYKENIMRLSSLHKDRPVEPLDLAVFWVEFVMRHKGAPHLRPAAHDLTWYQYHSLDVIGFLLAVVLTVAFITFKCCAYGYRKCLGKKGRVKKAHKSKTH
The data set can be described thus: Stability assessed as recombinant UGT1A9 (unknown origin) mediated compound glucuronidation by measuring half-life at 1 uM incubated in water bath by shaking at 37 degree C measured upto 60 mins in presence of UDPGA by LC-MS/MS analysis. The format is ADME.

For data set [5], the target named is Tryptophan 2,3-dioxygenase (Homo sapiens, UniProt P48775). Nature of the data set: Inhibition of TDO in human HEK cells. The format is cell-based.
Chain of Tryptophan 2,3-dioxygenase (P48775 whole entry): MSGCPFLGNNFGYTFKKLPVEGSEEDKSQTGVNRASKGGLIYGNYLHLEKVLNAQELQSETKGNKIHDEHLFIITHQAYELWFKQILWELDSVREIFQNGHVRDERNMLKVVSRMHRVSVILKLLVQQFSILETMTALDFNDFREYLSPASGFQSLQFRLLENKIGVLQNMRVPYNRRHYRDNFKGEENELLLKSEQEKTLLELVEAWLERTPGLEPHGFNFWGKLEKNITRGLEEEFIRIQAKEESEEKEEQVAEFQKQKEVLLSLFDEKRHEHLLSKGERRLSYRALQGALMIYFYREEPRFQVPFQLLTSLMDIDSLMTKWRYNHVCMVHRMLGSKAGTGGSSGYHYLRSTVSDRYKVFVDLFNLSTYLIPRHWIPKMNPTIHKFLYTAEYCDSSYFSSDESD
The target in data set [6] is T1, Indoleamine 2,3-dioxygenase 1. Nature of the data set: Inhibition IDO1 in LPS/IFN-gamma stimulated human whole blood assessed as reduction in tryptophan/kynurenine level preincubated for 15 mins followed by LPS/IFN-gamma stimulation measured after 20 hrs by LC-MS/MS analysis. It counts as tissue-based.
In a further data set the target is Cytochrome P450 3A4 (Homo sapiens, UniProt P08684). Nature of the data set: Inhibition of CYP3A4 (unknown origin). The format is ADME.
Chain of Cytochrome P450 3A4 (P08684 whole entry): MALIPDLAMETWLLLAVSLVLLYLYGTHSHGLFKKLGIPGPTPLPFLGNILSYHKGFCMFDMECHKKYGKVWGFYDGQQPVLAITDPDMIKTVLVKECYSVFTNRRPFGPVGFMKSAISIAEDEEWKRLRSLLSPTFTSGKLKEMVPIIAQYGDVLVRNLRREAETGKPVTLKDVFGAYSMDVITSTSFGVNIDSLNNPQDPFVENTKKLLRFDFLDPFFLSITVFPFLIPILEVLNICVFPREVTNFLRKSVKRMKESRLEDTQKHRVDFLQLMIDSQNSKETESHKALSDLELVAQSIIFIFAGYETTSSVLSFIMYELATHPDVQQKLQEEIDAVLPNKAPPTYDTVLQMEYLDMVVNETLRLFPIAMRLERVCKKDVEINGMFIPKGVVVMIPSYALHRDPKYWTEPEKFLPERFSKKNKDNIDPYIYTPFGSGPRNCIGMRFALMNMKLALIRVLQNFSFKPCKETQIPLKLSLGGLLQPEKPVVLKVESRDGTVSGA
The target in another data set is Cytochrome P450 2D6 (Homo sapiens, UniProt P10635). Nature of the data set: Inhibition of CYP2D6 (unknown origin). The format is ADME.
Chain of Cytochrome P450 2D6 (P10635 whole entry): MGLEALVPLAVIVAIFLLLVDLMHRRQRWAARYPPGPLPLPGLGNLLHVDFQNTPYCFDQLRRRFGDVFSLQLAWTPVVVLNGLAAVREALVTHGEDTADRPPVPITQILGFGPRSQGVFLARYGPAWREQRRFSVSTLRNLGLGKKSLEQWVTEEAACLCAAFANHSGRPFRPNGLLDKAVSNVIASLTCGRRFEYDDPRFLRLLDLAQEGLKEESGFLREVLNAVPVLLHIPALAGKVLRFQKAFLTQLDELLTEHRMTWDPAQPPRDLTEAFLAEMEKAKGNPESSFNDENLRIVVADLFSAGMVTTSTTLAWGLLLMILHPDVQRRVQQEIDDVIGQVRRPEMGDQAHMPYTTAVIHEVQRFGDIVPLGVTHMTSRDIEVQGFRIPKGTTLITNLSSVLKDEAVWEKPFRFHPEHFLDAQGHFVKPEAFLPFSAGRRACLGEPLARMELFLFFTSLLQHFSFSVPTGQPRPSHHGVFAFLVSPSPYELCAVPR
The target in a further data set is Cytochrome P450 2C9 (Homo sapiens, UniProt P11712). The data set can be described thus: Inhibition of CYP2C9 (unknown origin). It counts as ADME.
Chain of Cytochrome P450 2C9 (P11712 whole entry): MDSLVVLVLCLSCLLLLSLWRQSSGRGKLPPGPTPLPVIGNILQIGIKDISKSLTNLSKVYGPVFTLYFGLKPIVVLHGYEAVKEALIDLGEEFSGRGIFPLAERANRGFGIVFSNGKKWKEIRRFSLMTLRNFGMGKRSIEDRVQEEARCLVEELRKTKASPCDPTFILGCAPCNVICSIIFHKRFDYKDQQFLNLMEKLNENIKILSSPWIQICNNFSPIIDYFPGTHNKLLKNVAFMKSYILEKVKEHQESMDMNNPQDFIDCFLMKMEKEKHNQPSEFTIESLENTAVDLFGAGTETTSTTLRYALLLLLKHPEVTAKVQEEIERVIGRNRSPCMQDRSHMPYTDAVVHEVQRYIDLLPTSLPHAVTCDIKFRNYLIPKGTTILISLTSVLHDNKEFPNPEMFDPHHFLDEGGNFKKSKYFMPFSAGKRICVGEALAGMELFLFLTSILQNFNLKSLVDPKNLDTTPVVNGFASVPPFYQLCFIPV
The target of a further data set is Cytochrome P450 2C19 (Homo sapiens, UniProt P33261). The data set can be described thus: Inhibition of CYP2C19 (unknown origin). The format is ADME.
Chain of Cytochrome P450 2C19 (P33261 whole entry): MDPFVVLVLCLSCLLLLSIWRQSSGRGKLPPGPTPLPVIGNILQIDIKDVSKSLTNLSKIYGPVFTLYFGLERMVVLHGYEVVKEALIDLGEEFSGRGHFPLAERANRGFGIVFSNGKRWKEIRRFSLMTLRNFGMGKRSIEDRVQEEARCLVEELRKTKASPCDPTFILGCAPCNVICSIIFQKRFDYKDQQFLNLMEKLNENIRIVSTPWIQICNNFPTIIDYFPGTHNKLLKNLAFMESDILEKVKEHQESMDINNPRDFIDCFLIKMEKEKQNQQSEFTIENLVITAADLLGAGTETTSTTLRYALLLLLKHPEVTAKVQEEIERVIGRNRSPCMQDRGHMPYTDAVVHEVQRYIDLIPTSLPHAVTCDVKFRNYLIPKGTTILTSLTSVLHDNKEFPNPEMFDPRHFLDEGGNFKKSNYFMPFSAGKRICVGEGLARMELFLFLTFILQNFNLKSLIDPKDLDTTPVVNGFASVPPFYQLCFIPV
The nature of data set [7]: Cmax in mouse at 10 mg/kg, po by capillary micro-sampling analysis. As to conditions: in vivo. Details: dose 10 mg/kg, route oral. It counts as ADME, organism-based.
The nature of data set [8]: AUC (0 to 24 hrs) in mouse at 10 mg/kg, po by capillary micro-sampling analysis. Conditions: in vivo. Details: dose 10 mg/kg, time < 24 hr, route oral. It counts as ADME, organism-based.
Data set [9] in a line: Half life in mouse at 10 mg/kg, po by capillary micro-sampling analysis. It counts as ADME, organism-based. As to conditions: in vivo.
Data set [10] is described as follows: AUC(0 to 12 hrs) at steady state in human assessed as ratio of glucuronide to compound at 50 mg, bid measured after 10 days. The format is ADME. As to conditions: in vivo.

T1 sequence (P14902 whole entry): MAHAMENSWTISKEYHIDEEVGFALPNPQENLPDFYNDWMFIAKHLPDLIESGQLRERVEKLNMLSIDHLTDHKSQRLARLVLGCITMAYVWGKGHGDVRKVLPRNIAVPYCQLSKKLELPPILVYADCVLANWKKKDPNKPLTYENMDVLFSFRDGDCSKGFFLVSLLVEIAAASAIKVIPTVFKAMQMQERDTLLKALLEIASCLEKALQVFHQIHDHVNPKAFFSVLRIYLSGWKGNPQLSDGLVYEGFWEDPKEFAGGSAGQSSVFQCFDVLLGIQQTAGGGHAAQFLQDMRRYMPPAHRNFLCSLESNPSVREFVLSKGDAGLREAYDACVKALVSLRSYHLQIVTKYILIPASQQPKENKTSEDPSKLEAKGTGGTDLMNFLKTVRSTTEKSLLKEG

Consider `NS(=O)(=O)CC(=O)NCCSc1nonc1/C(=N/O)Nc1ccc(F)c(C(F)(F)F)c1`, for which the values for the IC50 in [1] and in data set [2] were 84 nM and 13 nM, respectively. In addition, the values for the half-life in [3] and in data set [4] were 1.88 h and 0.923 h, respectively. For the same compound, on UGT1A9, the half-life – broadly, the time needed for the level to fall by half in the phase considered – at 1 µM amounted to 1.45 h.
The like results for `CS(=N)(=O)CC(=O)NCCSc1nonc1/C(=N/O)Nc1ccc(F)c(Br)c1` (stereo unspecified) were, in that order, 61 nM, 14 nM, 2.65 h, 1.25 h and 1.53 h.
As for `NS(=O)(=O)NCCSc1nonc1/C(=N/O)Nc1ccc(F)c(Br)c1`, the half-maximal inhibitory concentration (IC50) (commonly the concentration that inhibits the measured activity by half) amounted to 130 nM in data set [1] and 2.8 nM in data set [2]. In addition, the half-life at 1 µM at UGT1A9 was 0.183 h.
For the compound `C[C@H](CSc1nonc1/C(=N/O)Nc1ccc(F)c(Br)c1)NC(=O)CS(N)(=O)=O`, the concentration for half-maximal inhibition (IC50) in data set [1] is 110 nM; in [2], 12 nM. In addition, the values for the half-life in [3] and in data set [4] were 0.77 h and 0.537 h, respectively. Further, the half-life at 1 µM on UGT1A9 was found to be 1.33 h.
The like results for `N#CCC(=O)NCCSc1nonc1/C(=N/O)Nc1ccc(F)c(C(F)F)c1` were, in that order, 180 nM, 6.5 nM, 2.77 h, 0.278 h and 1.73 h.
`NS(=O)(=O)NCC(=O)NCCSc1nonc1/C(=N/O)Nc1ccc(F)c(C(F)F)c1`: the IC50 is 93 nM in data set [1]; 21 nM in data set [2]; greater than 10000 nM in [5]; 320 nM in data set [6]; greater than 10000 nM at Cytochrome P450 3A4; greater than 10000 nM against Cytochrome P450 2D6. For the same compound, the IC50 at Cytochrome P450 2C9 and against Cytochrome P450 2C19 was greater than 10000 nM throughout. Moreover, the half-life in [3] is greater than 3 h; in [4] it was 2.75 h; in [9] it was 3.6 h. In addition, the half-life at 1 µM on UGT1A9 was greater than 3 h. Also, the Cmax (in general, the highest concentration seen after dosing) in data set [7] was 3.3 µM. Moreover, the AUC(0-t) (in general, the area under the concentration-time curve up to a stated or last time point) at 24 h in data set [8] was found to be 30 µM·h.
As for `NS(=O)(=O)CC(=O)NCCSc1nonc1/C(=N/O)Nc1cccc(C(F)(F)F)c1`, the half-inhibitory concentration (IC50) was 140 nM in data set [1] and 12 nM in data set [2]. Further, the half-life in data set [3] was 1.95 h; in [4], 0.44 h. Also, the half-life at 1 µM at UGT1A9 is greater than 3 h.
For the compound `NS(=O)(=O)NCCNc1nonc1/C(=N/OC1OC(C(=O)O)C(O)C(O)C1O)Nc1ccc(F)c(Br)c1` (stereo unspecified), the Ratio in [10] was 8.1.
For `NS(=O)(=O)CC(=O)NCCSc1nonc1/C(=N/O)Nc1cccc(C(F)F)c1`, the IC50 in data set [1] came to 130 nM; in [2], 17 nM. In addition, the half-life in data set [3] was greater than 3 h; in data set [4], 1.5 h. The half-life at 1 µM at UGT1A9 is greater than 3 h.
Consider `CC1(C(=O)NCCSc2nonc2/C(=N/O)Nc2ccc(F)c(C(F)F)c2)CCN1` (stereo unspecified), for which the results for the IC50 in [1] and in [2] were 360 nM and 16 nM, respectively. Further, the values for the half-life in data set [3] and in [4] were 1.97 h and 0.268 h, respectively. Besides, the half-life at 1 µM at UGT1A9 was greater than 3 h.
`NS(=O)(=O)CC(=O)NCCSc1nonc1/C(=N/O)Nc1ccc(F)c(C(F)F)c1`: the 50% inhibitory concentration (IC50) in data set [1] turned out to be 73 nM; in data set [2], 13 nM. Further, the half-life in [3] came out at 2.77 h; in data set [4], 1.07 h. Moreover, the half-life at 1 µM at UGT1A9 is greater than 3 h.
Turning to `COc1nonc1/C(=N/O)Nc1ccc(F)c(Br)c1`, the half-maximal inhibitory concentration (IC50) in data set [1] was 230 nM; in [2], 39 nM.
Consider `CC(C)(O)CC(=O)NCCSc1nonc1/C(=N/O)Nc1ccc(F)c(C(F)F)c1`, for which the IC50 in data set [1] was 140 nM; in [2], 8.4 nM. In addition, the values for the half-life in [3] and in data set [4] were 0.937 h and 0.175 h, respectively. The half-life at 1 µM on UGT1A9 is greater than 3 h.
As for `CS(=O)(=O)CC(=O)NCCSc1nonc1/C(=N/O)Nc1ccc(F)c(C(F)F)c1`, the IC50 in data set [1] was 100 nM; in data set [2] it was 14 nM. The results for the half-life in data set [3] and in data set [4] were 1.27 h and 0.765 h, respectively. Moreover, the half-life at 1 µM at UGT1A9 was 1.59 h.
Take `NS(=O)(=O)NCCOc1nonc1/C(=N/O)Nc1ccc(F)c(Br)c1`: the half-maximal inhibitory concentration (IC50) in data set [1] is 150 nM; in data set [2], 12 nM. Moreover, the half-life at 1 µM on UGT1A9 was 0.0483 h.
For the compound `CS(=O)(=O)CCC(=O)NCCSc1nonc1/C(=N/O)Nc1ccc(F)c(Br)c1`, the IC50 in data set [1] is 140 nM; in [2] it was 7.6 nM. Also, the half-life was 2.43 h in data set [3] and 1.66 h in data set [4]. Further, the half-life at 1 µM at UGT1A9 amounted to 0.858 h.
As for `NS(=O)(=O)CC(=O)NCCSc1nonc1/C(=N/O)Nc1cccc(Br)c1`, the 50% inhibitory concentration (IC50) turned out to be 30 nM in data set [1] and 8.1 nM in data set [2]. Besides, the half-life in data set [3] is greater than 3 h; in data set [4], 0.918 h. Also, on UGT1A9, the half-life at 1 µM was found to be 0.955 h.
For the compound `NS(=O)(=O)NCCNc1nonc1C(=NO)Nc1ccc(F)c(Br)c1` [EPACADOSTAT], the half-life at 1 µM at UGT1A9 was found to be 0.383 h.
With `CSc1nonc1/C(=N/O)Nc1ccc(F)c(Br)c1`, the half-maximal inhibitory concentration (IC50) in data set [1] turned out to be 560 nM; in [2], 15 nM.
Regarding `CS(=O)(=O)NCCSc1nonc1/C(=N/O)Nc1ccc(F)c(Br)c1`, the IC50 was determined as 270 nM in data set [1] and 9.3 nM in data set [2]. Also, the half-life was 1.73 h in data set [3] and 0.29 h in data set [4]. The half-life at 1 µM on UGT1A9 was determined as 0.357 h.
The like results for `N#Cc1cc(N/C(=N\O)c2nonc2SCCNC(=O)CS(N)(=O)=O)ccc1F` were, in that order, 150 nM, 39 nM, greater than 3 h, 2.38 h and greater than 3 h.
With `C[C@@H](CSc1nonc1/C(=N/O)Nc1ccc(F)c(Br)c1)NC(=O)CS(N)(=O)=O`, the IC50 turned out to be 93 nM in data set [1] and 19 nM in [2]. The half-life came to 1.57 h in data set [3] and 0.398 h in [4]. The half-life at 1 µM at UGT1A9 was greater than 3 h.
With `N#Cc1cccc(N/C(=N\O)c2nonc2SCCNC(=O)CS(N)(=O)=O)c1`, the half-maximal inhibitory concentration (IC50) in data set [1] turned out to be 240 nM; in data set [2], 44 nM. The half-life in data set [3] and in data set [4] was greater than 3 h throughout. In addition, at UGT1A9, the half-life at 1 µM is greater than 3 h.
Turning to `NS(=O)(=O)CC(=O)NCCSc1nonc1/C(=N/O)Nc1ccc(F)c(Br)c1`, the IC50 in data set [1] is 71 nM; in data set [2], 12 nM. In addition, the half-life is 2.37 h in data set [3] and 1.12 h in data set [4]. Besides, the half-life at 1 µM at UGT1A9 was determined as 0.758 h.
For `O=C(NCCSc1nonc1/C(=N/O)Nc1ccc(F)c(C(F)F)c1)C1CS(=O)(=O)C1`, in that order: 70 nM, 13 nM, 1.28 h, 0.245 h and greater than 3 h.
